The results in this text go back to BindingDB's records for doi:10.7270/Q29P301W (University of Pittsburgh, 2006).

Each structure is given as a SMILES string.

The assay deals with T1, Dual specificity protein phosphatase 6 (Rattus norvegicus, UniProt Q64346).
T1 sequence (Q64346 whole entry): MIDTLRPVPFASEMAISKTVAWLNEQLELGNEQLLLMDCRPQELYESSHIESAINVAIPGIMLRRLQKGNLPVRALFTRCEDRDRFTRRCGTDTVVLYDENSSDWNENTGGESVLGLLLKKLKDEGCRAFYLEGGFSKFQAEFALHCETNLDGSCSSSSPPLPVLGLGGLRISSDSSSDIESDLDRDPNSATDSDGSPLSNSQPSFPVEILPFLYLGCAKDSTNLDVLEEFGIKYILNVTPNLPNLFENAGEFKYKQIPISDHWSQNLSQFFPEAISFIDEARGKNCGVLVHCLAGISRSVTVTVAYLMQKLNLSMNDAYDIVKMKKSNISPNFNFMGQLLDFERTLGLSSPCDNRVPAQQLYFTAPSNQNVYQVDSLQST
The assay can be described thus: Confirmatory specificity testing of DUSP6 inhibitors, biochemical, cell-free, concentration series (AID 452).
As for `COc1ccc(Cn2c(C)nc3c(c2=O)c2nc4ccccc4nc2n3Cc2ccco2)cc1` [MLS000079944], the IC50 was found to be 41.2 µM. As for `CCn1nc(-c2ccccc2)nc2c(=O)n(C)c(=O)nc1-2` [1-Ethyl-6-methyl-3-phenyl-1H-pyrimido[5,4-e][1,2,4]triazine-5,7-dione], half-maximal inhibition (IC50) required 0.159 µM. On to `CC(C)Cn1c(N)c(C(=O)COC(=O)c2cc(-c3ccco3)nc3ccccc23)c(=O)n(C)c1=O` [2-(2-furanyl)-4-quinolinecarboxylic acid [2-[4-amino-1-methyl-3-(2-methylpropyl)-2,6-dioxo-5-pyrimidinyl]-2-oxoethyl] ester], for which the 50% inhibitory concentration (IC50) is above 50 µM. `CCCCC[C@H](O)C=C[C@H]1C=CC(=O)[C@@H]1C/C=C\CCCC(=O)O` [(Z)-7-[(1R,5S)-2-oxidanylidene-5-[(E,3S)-3-oxidanyloct-1-enyl]cyclopent-3-en-1-yl]hept-5-enoic acid] displayed a 50% inhibitory concentration (IC50) above 50 µM.

Molecule `Cc1ccc2c(c1C)NC(C(=O)O)C1CC=CC21` (stereo not given) gave a 50% inhibitory concentration (IC50) above 50 µM.

One may read the IC50 as the concentration needed to halve the response being measured.
